{"source": "patent US9388140B2", "about": "“Substituted benzimidazoles” (priority 2011, dated 2016)", "target": "human kinase Mps-1 (Homo sapiens (Human), UniProt P33981)", "sequence (P33981 whole entry)": "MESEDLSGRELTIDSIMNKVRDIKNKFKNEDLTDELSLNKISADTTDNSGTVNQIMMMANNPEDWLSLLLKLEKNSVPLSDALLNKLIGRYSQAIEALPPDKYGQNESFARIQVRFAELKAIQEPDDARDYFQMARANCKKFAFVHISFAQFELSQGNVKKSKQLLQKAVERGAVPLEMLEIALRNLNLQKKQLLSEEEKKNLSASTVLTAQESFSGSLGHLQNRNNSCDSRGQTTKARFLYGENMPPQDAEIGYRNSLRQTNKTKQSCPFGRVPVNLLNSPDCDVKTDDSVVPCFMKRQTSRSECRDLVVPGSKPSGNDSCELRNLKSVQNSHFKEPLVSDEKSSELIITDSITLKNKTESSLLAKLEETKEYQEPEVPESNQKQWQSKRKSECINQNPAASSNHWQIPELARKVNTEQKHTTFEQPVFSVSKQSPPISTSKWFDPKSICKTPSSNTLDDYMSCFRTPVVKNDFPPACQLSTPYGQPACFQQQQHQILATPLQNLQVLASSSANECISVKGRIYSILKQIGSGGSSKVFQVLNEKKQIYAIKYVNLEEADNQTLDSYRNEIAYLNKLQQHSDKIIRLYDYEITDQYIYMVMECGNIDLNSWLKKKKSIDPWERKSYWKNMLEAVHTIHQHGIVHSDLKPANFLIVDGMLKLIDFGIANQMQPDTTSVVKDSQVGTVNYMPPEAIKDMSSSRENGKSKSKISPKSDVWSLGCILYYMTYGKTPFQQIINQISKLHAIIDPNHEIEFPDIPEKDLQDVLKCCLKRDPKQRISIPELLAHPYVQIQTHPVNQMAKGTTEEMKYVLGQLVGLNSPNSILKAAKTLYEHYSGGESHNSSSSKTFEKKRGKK", "assay": "Mps-1 kinase assay (TR-FRET)", "assay_type": "biochemical", "conditions": "N-terminally GST-tagged human full length recombinant Mps-1; 10 μM ATP; 1 μM biotinylated peptide substrate; read-out: Mps1 IC50", "in_short": "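Read-out: TR-FRET from Europium-labelled anti-phospho(Ser/Thr) antibody to SA-XLent after 1 h detection incubation at 22° C. Inhibition of kinase activity measured.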", "data": [{"compound": "CCNC(=O)c1ccc(-n2cnc3c(NCC4CCOCC4)cc(Oc4ccc(OC)cc4F)cc32)cc1C", "note": "[Example 87, N-ethyl-4-{6-(2-fluoro-4-methoxyphenoxy)-4-[(tetrahydro-2H-pyran-4-ylmethyl)amino]-1H-benzimidazol-1-yl}-2-methylbenzamide]", "values": [{"measurement": "IC50", "result": 11.4, "unit": "nM"}]}, {"compound": "CNC(=O)c1ccc(-n2cnc3c(NCCC(F)(F)F)cc(Oc4ccc(OC)cc4F)cc32)cc1C", "note": "[Example 88, 4-{6-(2-fluoro-4-methoxyphenoxy)-4-[(3,3,3-trifluoropropyl)amino]-1H-benzimidazol-1-yl}-N,2-dimethylbenzamide]", "values": [{"measurement": "IC50", "result": 6.7, "unit": "nM"}]}, {"compound": "CCNC(=O)c1ccc(-n2cnc3c(NCCC(F)(F)F)cc(Oc4ccc(OC)cc4F)cc32)cc1C", "note": "[Example 89, N-ethyl-4-{6-(2-fluoro-4-methoxyphenoxy)-4-[(3,3,3-trifluoropropyl)amino]-1H-benzimidazol-1-yl}-2-methylbenzamide]", "values": [{"measurement": "IC50", "result": 10.8, "unit": "nM"}]}, {"compound": "Cc1cc(-n2cnc3c(NCCC(F)(F)F)cc(Oc4ccc(O)cc4F)cc32)ccc1C(=O)NC1CC1", "note": "[Example 90, N-cyclopropyl-4-{6-(2-fluoro-4-hydroxyphenoxy)-4-[(3,3,3-trifluoropropyl)amino]-1H-benzimidazol-1-yl}-2-methylbenzamide]", "values": [{"measurement": "IC50", "result": 1.1, "unit": "nM"}]}, {"compound": "Cc1cc(-n2cnc3c(NCCC(F)(F)F)cc(Oc4cccc(F)c4O)cc32)ccc1C(=O)NC1CC1", "note": "[Example 91, N-cyclopropyl-4-{6-(3-fluoro-2-hydroxyphenoxy)-4-[(3,3,3-trifluoropropyl)amino]-1H-benzimidazol-1-yl}-2-methylbenzamide]", "values": [{"measurement": "IC50", "result": 0.4, "unit": "nM"}]}, {"compound": "CNC(=O)c1ccc(-n2cnc3c(NCCC(F)(F)F)cc(Oc4cccc(F)c4O)cc32)cc1C", "note": "[Example 92, 4-{6-(3-fluoro-2-hydroxyphenoxy)-4-[(3,3,3-trifluoropropyl)amino]-1H-benzimidazol-1-yl}-N,2-dimethylbenzamide]", "values": [{"measurement": "IC50", "result": 3, "unit": "nM"}]}, {"compound": "CCNC(=O)c1ccc(-n2cnc3c(NCCC(F)(F)F)cc(Oc4cccc(F)c4O)cc32)cc1C", "note": "[Example 93, N-ethyl-4-{6-(3-fluoro-2-hydroxyphenoxy)-4-[(3,3,3-trifluoropropyl)amino]-1H-benzimidazol-1-yl}-2-methylbenzamide]", "values": [{"measurement": "IC50", "result": 4.1, "unit": "nM"}]}, {"compound": "CNC(=O)c1ccc(-n2cnc3c(NCCC(F)(F)F)cc(Oc4cccc(O)c4)cc32)cc1C", "note": "[Example 94, 4-{6-(3-hydroxyphenoxy)-4-[(3,3,3-trifluoropropyl)amino]-1H-benzimidazol-1-yl}-N,2-dimethylbenzamide]", "values": [{"measurement": "IC50", "result": 3.1, "unit": "nM"}]}, {"compound": "CCNC(=O)c1ccc(-n2cnc3c(NCCC(F)(F)F)cc(Oc4cccc(O)c4)cc32)cc1C", "note": "[Example 95, N-ethyl-4-{6-(3-hydroxyphenoxy)-4-[(3,3,3-trifluoropropyl)amino]-1H-benzimidazol-1-yl}-2-methylbenzamide]", "values": [{"measurement": "IC50", "result": 5.6, "unit": "nM"}]}, {"compound": "Cc1cc(-n2cnc3c(NCCC(F)(F)F)cc(Oc4cccc(S(F)(F)(F)(F)F)c4)cc32)ccc1C(=O)NC1CC1", "note": "[Example 96, N-cyclopropyl-2-methyl-4-{6-[3-(pentafluoro-lambda^6-sulfanyl)phenoxy]-4-[(3,3,3-trifluoropropyl)amino]-1H-benzimidazol-1-yl}benzamide]", "values": [{"measurement": "IC50", "result": 4.8, "unit": "nM"}]}, {"compound": "CNC(=O)c1ccc(-n2cnc3c(NCCC(F)(F)F)cc(Oc4ccc(O)cc4F)cc32)cc1C", "note": "[Example 97, 4-{6-(2-fluoro-4-hydroxyphenoxy)-4-[(3,3,3-trifluoropropyl)amino]-1H-benzimidazol-1-yl}-N,2-dimethylbenzamide]", "values": [{"measurement": "IC50", "result": 4.6, "unit": "nM"}]}, {"compound": "CCNC(=O)c1ccc(-n2cnc3c(NCCC(F)(F)F)cc(Oc4ccc(O)cc4F)cc32)cc1C", "note": "[Example 98, N-ethyl-4-{6-(2-fluoro-4-hydroxyphenoxy)-4-[(3,3,3-trifluoropropyl)amino]-1H-benzimidazol-1-yl}-2-methylbenzamide]", "values": [{"measurement": "IC50", "result": 4.6, "unit": "nM"}]}, {"compound": "CNC(=O)c1ccc(-n2cnc3c(NCCC(F)(F)F)cc(Oc4ccc(O)c(F)c4)cc32)cc1C", "note": "[Example 99, 4-{6-(3-fluoro-4-hydroxyphenoxy)-4-[(3,3,3-trifluoropropyl)amino]-1H-benzimidazol-1-yl}-N,2-dimethylbenzamide]", "values": [{"measurement": "IC50", "result": 2.4, "unit": "nM"}]}, {"compound": "CCNC(=O)c1ccc(-n2cnc3c(NCCC(F)(F)F)cc(Oc4ccc(O)c(F)c4)cc32)cc1C", "note": "[Example 100, N-ethyl-4-{6-(3-fluoro-4-hydroxyphenoxy)-4-[(3,3,3-trifluoropropyl)amino]-1H-benzimidazol-1-yl}-2-methylbenzamide]", "values": [{"measurement": "IC50", "result": 3.4, "unit": "nM"}]}, {"compound": "COc1ccc(C(=O)c2cc(NCCC(F)(F)F)c3ncn(-c4ccc(C(=O)NC5CC5)c(C)c4)c3c2)cc1F", "note": "[Example 101, N-cyclopropyl-4-{6-(3-fluoro-4-methoxybenzoyl)-4-[(3,3,3-trifluoropropyl)amino]-1H-benzimidazol-1-yl}-2-methylbenzamide]", "values": [{"measurement": "IC50", "result": 6.4, "unit": "nM"}]}, {"compound": "COc1ccc(C(O)c2cc(NCCC(F)(F)F)c3ncn(-c4ccc(C(=O)NC5CC5)c(C)c4)c3c2)cc1F", "note": "(centres unmarked) [Example 102, N-cyclopropyl-4-{6-[(3-fluoro-4-methoxyphenyl)(hydroxy)methyl]-4-[(3,3,3-trifluoropropyl)amino]-1H-benzimidazol-1-yl}-2-methylbenzamide]", "values": [{"measurement": "IC50", "result": 1.8, "unit": "nM"}]}, {"compound": "C=C(c1ccc(OC)c(F)c1)c1cc(NCCC(F)(F)F)c2ncn(-c3ccc(C(=O)NC4CC4)c(C)c3)c2c1", "note": "[Example 104, N-cyclopropyl-4-{6-[1-(3-fluoro-4-methoxyphenyl)vinyl]-4-[(3,3,3-trifluoropropyl)amino]-1H-benzimidazol-1-yl}-2-methylbenzamide]", "values": [{"measurement": "IC50", "result": 2.1, "unit": "nM"}]}, {"compound": "COc1ccc(Cc2cc(NCCC(F)(F)F)c3ncn(-c4ccc(C(=O)NC5CC5)c(C)c4)c3c2)cc1F", "note": "[Example 106, N-cyclopropyl-4-{6-(3-fluoro-4-methoxybenzyl)-4-[(3,3,3-trifluoropropyl)amino]-1H-benzimidazol-1-yl}-2-methylbenzamide]", "values": [{"measurement": "IC50", "result": 0.9, "unit": "nM"}]}, {"compound": "Cc1ccc(F)cc1Oc1cc(NCCC(F)(F)F)c2ncn(-c3ccc(C(=O)NC4CC4)c(C)c3)c2c1", "note": "[Example 107, N-cyclopropyl-4-{6-(5-fluoro-2-methylphenoxy)-4-[(3,3,3-trifluoropropyl)amino]-1H-benzimidazol-1-yl}-2-methylbenzamide]", "values": [{"measurement": "IC50", "result": 5.3, "unit": "nM"}]}, {"compound": "Cc1cc(-n2cnc3c(NCCC(F)(F)F)cc(C(=O)c4ccc(O)c(F)c4)cc32)ccc1C(=O)NC1CC1", "note": "[Example 108, N-cyclopropyl-4-{6-(3-fluoro-4-hydroxybenzoyl)-4-[(3,3,3-trifluoropropyl)amino]-1H-benzimidazol-1-yl}-2-methylbenzamide]", "values": [{"measurement": "IC50", "result": 17, "unit": "nM"}]}, {"compound": "Cc1cc(-n2cnc3c(NCCC(F)(F)F)cc(Oc4cccc(C(F)F)c4)cc32)ccc1C(=O)NC1CC1", "note": "[Example 109, N-cyclopropyl-4-{6-[3-(difluoromethyl)phenoxy]-4-[(3,3,3-trifluoropropyl)amino]-1H-benzimidazol-1-yl}-2-methylbenzamide]", "values": [{"measurement": "IC50", "result": 2.8, "unit": "nM"}]}, {"compound": "COc1ccccc1C(=O)c1cc(NCCC(F)(F)F)c2ncn(-c3ccc(C(=O)NC4CC4)c(C)c3)c2c1", "note": "[Example 110, N-cyclopropyl-4-{6-(2-methoxybenzoyl)-4-[(3,3,3-trifluoropropyl)amino]-1H-benzimidazol-1-yl}-2-methylbenzamide]", "values": [{"measurement": "IC50", "result": 12, "unit": "nM"}]}, {"compound": "Cc1cc(-n2cnc3c(NCCC(F)(F)F)cc(Oc4cccc(O)c4)cc32)ccc1C(=O)NC1CC1", "note": "[Example 111, N-cyclopropyl-4-{6-(3-hydroxyphenoxy)-4-[(3,3,3-trifluoropropyl)amino]-1H-benzimidazol-1-yl}-2-methylbenzamide]", "values": [{"measurement": "IC50", "result": 0.6, "unit": "nM"}]}]}
